The test system of the experiment is mature cardiac construct. Put plainly: drug screening on mature cardiac construct in the microfluidic device (spontaneous contraction frequency). Format: cell-based, neonatal rats. Conditions: increasing concentrations 1 and 2 μg/ml in culture medium injected in sequence; evaluated 60 seconds after injection; 37° C.; with respect to control construct without drug.

The values below come from patent US10961492B2, “Microfluidic devices and related methods for generation and/or culture and/or maturation of three-dimensional cells and/or tissue constructs” (POLITECNICO DI MILANO, priority 2015, dated 2021).

Method: The cells of interest were isolated using the following process. The cardiac tissue removed from the ventricles of neonatal rats was digested in trypsin (0.6 mg/ml, in a Hank balanced saline solution, HBSS) for 18 hours. The digestion was then blocked by adding 10 ml of culture medium (Dulbecco Modified Eagle's Medium, DMEM) containing: 10% of fetal bovine serum, 1% of penicillin-streptomycin, 1% of HEPES and 1% of L-Glutamine. The isolation of the cells from the matrix was then obtained with five passages in a solution of collagenase (1 mg/ml in HBSS) at 37° C. for 5 minutes. The cell suspension thus obtained was centrifuged at 700 rpm for 10 minutes, re-suspended in 25 ml of culture medium and seeded in a culture flask to isolate the fraction of cardiomyocytes (non-adherent).
For seeding inside the device, the cardiac cells thus isolated were diluted in a solution of fibrin gel at a cell concentration of 1×10^5 cells/μl. More specifically, for the seeding of 6 devices, 20 μl of fibrin gel were prepared by mixing 20×10^5 cells (estimated volume of 8.2 μl), 4 μl of calcium chloride, 4 μl of fibrinogen (20 mg/ml in sodium chloride), 2.8 μl of aprotinin (16 TIU/ml in distilled water) and 1 μl of thrombin (5 U/ml in calcium chloride). […]

With `CCN(CC)CC(=O)Nc1c(C)cccc1C` [lidocaine], the spontaneous contraction frequency entry is “decrease in the contraction frequency”.
